Assay results: patent US9890171B2, “Aldosterone synthase inhibitors” (Boehringer Ingelheim International GmbH, priority 2014, dated 2018)

molecular target: aldosterone synthase (CYP11B2) (Macaca fascicularis, UniProt A0A2K5UPL9); assay: aldosterone synthase inhibition assay; type: biochemical, cynomolgus monkey; details: cynomolgus adrenal gland mitochondria, 2 μM corticosterone, aldosterone quantified by mass spectrometry
Procedure: The aldosterone synthase inhibition assay employs cynomolgus adrenal gland mitochondria as the source of aldosterone synthase (CYP11B2). Mitochondria are prepared from frozen cynomolgus monkey adrenal glands according to Method A described in by J. D. McGarry et al. (Biochem. J., 1983, 214, 21-28), with a final resuspension in the AT buffer described in R. Yamaguchi et al. (Cell Death and Differentiation, 2007, 14, 616-624), frozen as aliquots in liquid nitrogen and stored at −80° C. until use.
Assays are performed in 96-well format in a final volume of 60 μL/well, containing 100 mM potassium phosphate, pH 7.4, 1% (v/v) DMSO, and additionally, 2 μM of corticosterone and […] of mitochondrial protein. Reactions are started by the addition of NADPH to 1 mM and allowed to proceed for 60-90 minutes at 37° C. Reactions are terminated by the addition of […]. One hundred microliters are then transferred to a glass filter plate and centrifuged at 570×g for 5 minutes and the filtrate is collected. Reaction product aldosterone is quantified by mass spectrometry. To determine the assay blank value (0% activity), NADPH is omitted from some reactions.
Dose dependent inhibition is quantified by the inclusion of compound at various concentrations. Maximum activity (100%) is defined by reactions containing NADPH, but without compound. Activities at each concentration are expressed as a percentage of the maximum activity (y-axis) and plotted against concentration of compound (x-axis) and the concentration corresponding to 50% activity (IC50) determined using the XLFit curve-fitting program using a 4-parameter logistic model.

Chain of aldosterone synthase (CYP11B2) (A0A2K5UPL9 1-503): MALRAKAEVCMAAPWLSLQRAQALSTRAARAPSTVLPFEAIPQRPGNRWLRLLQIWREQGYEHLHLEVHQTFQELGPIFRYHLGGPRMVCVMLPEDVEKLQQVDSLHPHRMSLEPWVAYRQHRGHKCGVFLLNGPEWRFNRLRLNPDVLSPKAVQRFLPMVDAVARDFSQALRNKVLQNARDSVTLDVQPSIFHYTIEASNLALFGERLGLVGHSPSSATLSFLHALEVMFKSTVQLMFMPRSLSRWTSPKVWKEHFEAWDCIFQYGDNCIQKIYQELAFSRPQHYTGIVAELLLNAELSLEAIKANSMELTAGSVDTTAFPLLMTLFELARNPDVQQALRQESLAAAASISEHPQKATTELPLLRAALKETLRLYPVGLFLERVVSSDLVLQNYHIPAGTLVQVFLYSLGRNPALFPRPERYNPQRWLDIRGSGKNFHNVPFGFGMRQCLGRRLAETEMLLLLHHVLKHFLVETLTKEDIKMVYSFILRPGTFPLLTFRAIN

Row | IC50 [nM] | SMILES
1 | 2700 | Cn1cc(-c2cncc3c2COCC3O)cn1 (single isomer, unassigned) [Compound 32, 8-(1-Methyl-1H-pyrazol-4-yl)-3,4-dihydro-1H-pyrano[4,3-c]pyridin-4-ol]
2 | 40.5 | OC1COCc2c(-c3ccc4scnc4c3)cncc21 (single isomer, unassigned) [Compound 33, 8-Benzothiazol-5-yl-3,4-dihydro-1H-pyrano[4,3-c]pyridin-4-ol]
3 | 17.3 | OC1COCc2c(-c3ccc4cc[nH]c4c3)cncc21 (single isomer, unassigned) [Compound 34, 8-(1H-Indol-6-yl)-3,4-dihydro-1H-pyrano[4,3-c]pyridin-4-ol]
4 | 9.7 | OC1COCc2c(-c3ccc4ncccc4c3)cncc21 (single isomer, unassigned) [Compound 35, 8-Quinolin-6-yl-3,4-dihydro-1H-pyrano[4,3-c]pyridin-4-ol]
5 | 17.5 | Cn1ncc2cc(-c3cncc4c3COCC4O)ccc21 (single isomer, unassigned) [Compound 36, 8-(1-Methyl-1H-indazol-5-yl)-3,4-dihydro-1H-pyrano[4,3-c]pyridin-4-ol]
6 | 94.4 | OC1COCc2c(-c3ccc4cn[nH]c4c3)cncc21 (single isomer, unassigned) [Compound 37, 8-(1H-Indazol-6-yl)-3,4-dihydro-1H-pyrano[4,3-c]pyridin-4-ol]
7 | 12 | OC1COCc2c(-c3ccc4c(c3)OCCO4)cncc21 (single isomer, unassigned) [Compound 38, 8-(2,3-Dihydro-benzo[1,4]dioxin-6-yl)-3,4-dihydro-1H-pyrano[4,3-c]pyridin-4-ol]
8 | 437 | Cc1nn(C)c(C)c1-c1cncc2c1COCC2O (single isomer, unassigned) [Compound 39, 8-(1,3,5-Trimethyl-1H-pyrazol-4-yl)-3,4-dihydro-1H-pyrano[4,3-c]pyridin-4-ol]
9 | 186 | OC1COCc2c(-c3cnc4[nH]ccc4c3)cncc21 (single isomer, unassigned) [Compound 40, 8-(1H-Pyrrolo[2,3-b]pyridin-5-yl)-3,4-dihydro-1H-pyrano[4,3-c]pyridin-4-ol]
10 | 1000 | Cc1c(-c2cncc3c2COCC3O)cnn1C (single isomer, unassigned) [Compound 41, 8-(1,5-Dimethyl-1H-pyrazol-4-yl)-3,4-dihydro-1H-pyrano[4,3-c]pyridin-4-ol]
11 | 367 | Cn1nc(C(F)(F)F)cc1-c1cncc2c1COCC2O (single isomer, unassigned) [Compound 42, 8-(2-Methyl-5-trifluoromethyl-2H-pyrazol-3-yl)-3,4-dihydro-1H-pyrano[4,3-c]pyridin-4-ol]
12 | 22 | OC1COCc2c(-c3ccc4c(c3)OCCCO4)cncc21 (single isomer, unassigned) [Compound 43, 8-(3,4-Dihydro-2H-benzo[b][1,4]dioxepin-7-yl)-3,4-dihydro-1H-pyrano[4,3-c]pyridin-4-ol]
13 | 8.5 | Cn1ncc2ccc(-c3cncc4c3COCC4O)cc21 (single isomer, unassigned) [Compound 44, 8-(1-Methyl-1H-indazol-6-yl)-3,4-dihydro-1H-pyrano[4,3-c]pyridin-4-ol]
14 | 5.8 | OC1COCc2c(-c3ccc4cnccc4c3)cncc21 (single isomer, unassigned) [Compound 45, 8-Isoquinolin-6-yl-3,4-dihydro-1H-pyrano[4,3-c]pyridin-4-ol]
15 | 302 | OC1COCc2c(-c3cnn(C4CC4)c3)cncc21 (single isomer, unassigned) [Compound 46, 8-(1-Cyclopropyl-1H-pyrazol-4-yl)-3,4-dihydro-1H-pyrano[4,3-c]pyridin-4-ol]
16 | 50 | OC1COCc2c(-c3ccc4[nH]ncc4c3)cncc21 (single isomer, unassigned) [Compound 47, 8-(1H-Indazol-5-yl)-3,4-dihydro-1H-pyrano[4,3-c]pyridin-4-ol]
17 | 17.4 | OC1COCc2c(-c3ccc4[nH]ccc4c3)cncc21 (single isomer, unassigned) [Compound 48, 8-(1H-Indol-5-yl)-3,4-dihydro-1H-pyrano[4,3-c]pyridin-4-ol]
18 | 55.7 | OC1COCc2c(-c3ccc4ocnc4c3)cncc21 (single isomer, unassigned) [Compound 49, 8-Benzooxazol-5-yl-3,4-dihydro-1H-pyrano[4,3-c]pyridin-4-ol]
19 | 1200 | Cn1cc2ccc(-c3cncc4c3COCC4O)cc2n1 (single isomer, unassigned) [Compound 50, 8-(2-Methyl-2H-indazol-6-yl)-3,4-dihydro-1H-pyrano[4,3-c]pyridin-4-ol]
20 | 24.2 | CN1C(=O)Cc2cc(-c3cncc4c3COCC4O)ccc21 (single isomer, unassigned) [Compound 51, 5-(4-Hydroxy-3,4-dihydro-1H-pyrano[4,3-c]pyridin-8-yl)-1-methyl-1,3-dihydro-indol-2-one]
21 | 64.1 | O=C1Cc2cc(-c3cncc4c3COCC4O)ccc2N1 (single isomer, unassigned) [Compound 52, 5-(4-Hydroxy-3,4-dihydro-1H-pyrano[4,3-c]pyridin-8-yl)-1,3-dihydro-indol-2-one]
22 | 808 | OC1COCc2c(-c3ccc4ocnc4c3)cncc21 (single isomer, unassigned) [Compound 53, 8-Benzooxazol-5-yl-3,4-dihydro-1H-pyrano[4,3-c]pyridin-4-ol]
23 | 149 | CN1C(=O)Cc2cc(-c3cncc4c3COCC4O)ccc21 (single isomer, unassigned) [Compound 54, 5-(4-Hydroxy-3,4-dihydro-1H-pyrano[4,3-c]pyridin-8-yl)-1-methyl-1,3-dihydro-indol-2-one]
24 | 7.6 | Cn1nc(F)c2ccc(-c3cncc4c3COCC4O)cc21 (single isomer, unassigned) [Compound 55, 8-(3-Fluoro-1-methyl-1H-indazol-6-yl)-3,4-dihydro-1H-pyrano[4,3-c]pyridin-4-ol]
25 | 85.8 | CCC(=O)NC1COCc2c(-c3ccc4ocnc4c3)cncc21 (single isomer, unassigned) [Compound 56, N-(8-Benzooxazol-5-yl-3,4-dihydro-1H-pyrano[4,3-c]pyridin-4-yl)-propionamide]
26 | 219 | CCC(=O)NC1COCc2c(-c3ccc4ncn(C)c4c3)cncc21 (single isomer, unassigned) [Compound 57, N-[8-(3-Methyl-3H-benzoimidazol-5-yl)-3,4-dihydro-1H-pyrano[4,3-c]pyridin-4-yl]-propionamide]
27 | 130 | CCC(=O)NC1COCc2c(-c3ccc4c(c3)CC(=O)N4C)cncc21 (single isomer, unassigned) [Compound 58, N-[8-(1-Methyl-2-oxo-2,3-dihydro-1H-indol-5-yl)-3,4-dihydro-1H-pyrano[4,3-c]pyridin-4-yl]-propionamide]
28 | 179 | CCC(=O)NC1COCc2c(-c3ccc4c(c3)CC(=O)N4)cncc21 (single isomer, unassigned) [Compound 59, N-[8-(2-Oxo-2,3-dihydro-1H-indol-5-yl)-3,4-dihydro-1H-pyrano[4,3-c]pyridin-4-yl]-propionamide]
29 | 75.5 | CCC(=O)NC1COCc2c(-c3ccc4nnn(C)c4c3)cncc21 (single isomer, unassigned) [Compound 60, N-[8-(3-Methyl-3H-benzotriazol-5-yl)-3,4-dihydro-1H-pyrano[4,3-c]pyridin-4-yl]-propionamide]
